Experimental data as given in ChEMBL document CHEMBL1201862, “PubChem BioAssay data set” (2004).
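Growth conditions: 96-well plates. Treatment: test compound, 48 hours, 5 concentrations. Analysis: linear interpolation between bracketing concentrations; unreached endpoints set to highest concentration. The concentration for 50% growth inhibition is given as GI50.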 Active and inactive are the calls of the source. Cut-off read from the data, not from the text of the source: active = GI50 up to about 1.1 µM and inactive = higher.

Experiments:
Assay in all cases: NCI tumour cell line growth inhibition, 48 h
[1] = tested on: DMS-273
[2] = tested on: HOP-18
[3] = tested on: M19-MEL
[4] = tested on: RXF 631
[5] = tested on: DLD-1
[6] = tested on: DMS-114
[7] = tested on: XF498
[8] = tested on: SNB-78

Measured: GI50

NC(CCC(=O)NC(CSSCCCCS(=O)O)C(=O)NCC(=O)O)C(=O)O (centres undefined)
inactive: [1] > 100 µM | [2] > 100 µM | [3] > 100 µM | [4] > 100 µM | [5] > 100 µM | [6] > 100 µM | [7] > 100 µM | [8] > 100 µM

[N-]=[N+]=Nc1c(Br)c(=O)[nH]c(=O)n1COCCO
inactive: [1] > 100 µM | [2] > 100 µM | [3] > 100 µM | [4] > 100 µM | [5] > 100 µM | [6] > 100 µM | [7] > 100 µM | [8] > 100 µM

COC(=O)C(C(=O)C(N)=O)c1csc(-n2nc(-c3ccccc3)cc2-c2ccccc2)n1 (centres undefined)
inactive: [1] > 31.6 µM | [2] 15.6 µM | [3] > 31.6 µM | [4] > 10 µM | [5] > 31.6 µM | [6] 12.8 µM | [7] 25.2 µM | [8] > 31.6 µM

COc1ccc2nc3cc(Cl)ccc3c(Sc3ccc(NC(C)=O)cc3)c2c1
inactive: [1] 8.09 µM | [2] > 29.9 µM | [3] 10.9 µM | [4] 8.85 µM | [5] 6.89 µM | [6] 6.84 µM | [8] 5.6 µM

Cc1ccc(-c2nc3ccccc3c(=O)n2NC2OC(CO)C(O)C(O)C2O)cc1 (centres undefined)
inactive: [1] > 100 µM | [2] > 100 µM | [3] > 100 µM | [4] > 100 µM | [6] > 100 µM | [7] > 100 µM | [8] > 100 µM

CC(=O)OC1COC(N2C(=O)C(=O)c3cc(Br)ccc32)C(OC(C)=O)C1OC(C)=O (centres undefined)
inactive: [1] > 100 µM | [2] > 100 µM | [3] 52.1 µM | [4] > 100 µM | [5] > 100 µM | [6] > 100 µM | [7] > 100 µM | [8] > 100 µM

COc1ccc2ccccc2c1C1=NC(C)(C)CO1
inactive: [2] > 100 µM | [3] > 100 µM | [4] > 100 µM | [5] > 100 µM | [7] > 100 µM

COc1ccccc1NC(=O)C1=C(C)NC(C)=C(C(=O)Nc2ccccc2OC)C1c1ccccc1OC
inactive: [1] > 100 µM | [2] > 100 µM | [3] > 100 µM | [4] > 100 µM | [5] > 100 µM | [6] 85.5 µM | [8] > 100 µM

O=C(CC(=O)N1N=C(c2ccccc2)C(/N=N/c2ccc(Cl)cc2)C1=O)Nc1ccccc1Cl (centres undefined)
inactive: [1] 32.2 µM | [2] 24.2 µM | [3] 51.3 µM | [4] 40.6 µM | [5] 30.3 µM | [6] 90.6 µM | [7] 35.7 µM | [8] 64 µM

O=S(=O)(/C=C/c1ccc(F)cc1)Cc1ccc(CS(=O)(=O)/C=C/c2ccc(F)cc2)cc1
inactive: [1] > 100 µM | [2] > 100 µM | [3] > 100 µM | [4] > 100 µM | [5] > 100 µM | [6] > 100 µM | [7] > 100 µM | [8] > 100 µM
